Series [1] is described as follows: Circular dichroism spectroscopy, helical residues per peptide chain. Format: physicochemical. To be noted: calculated from [θ]222. Here is the method:
Circular Dichroism—CD spectra were obtained on a JASCO J-600 spectropolarimeter at 20° C. Four spectra were averaged and the data smoothed by the JASCO software. The instrument was calibrated with ammonium (+)-10-camphorsulfonate. Peptide concentrations were verified from the absorption at 280 nm, using an extinction coefficient of 5700 M^−1 for the single tryptophan. Data are expressed as the number of helical residues per peptide chain, as calculated from −[θ]222×30/28,000, where [θ]222 is the mean residue elipticity ([θ]) at 222 nm, as was described previously (Barbier, J. R., et al. (2005) J Biol Chem. 280:23771-23777).

Another series deals with T1, PTHR-delNt (Homo sapiens, UniProt Q03431, DEL24-181).
T1 construct: expressed in transfected cells; host or cells: COS-7 cells, transient co-transfection; membranes prepared
T1 sequence (Q03431 with tags, fused parts or gaps DEL24-181): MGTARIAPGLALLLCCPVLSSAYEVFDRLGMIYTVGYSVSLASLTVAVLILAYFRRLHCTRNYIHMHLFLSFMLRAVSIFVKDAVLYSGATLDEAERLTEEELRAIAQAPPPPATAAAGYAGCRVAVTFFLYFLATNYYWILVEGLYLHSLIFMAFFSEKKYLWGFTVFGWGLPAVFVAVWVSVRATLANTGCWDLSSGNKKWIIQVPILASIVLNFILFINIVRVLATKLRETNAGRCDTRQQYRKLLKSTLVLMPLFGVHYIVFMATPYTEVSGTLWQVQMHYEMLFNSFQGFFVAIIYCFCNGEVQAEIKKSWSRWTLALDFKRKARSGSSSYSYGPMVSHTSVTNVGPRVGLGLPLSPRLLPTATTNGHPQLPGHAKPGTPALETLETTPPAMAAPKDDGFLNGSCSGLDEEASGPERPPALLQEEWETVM
Kind of series: Competition binding in COS-7 cell membranes with 125I-[Aib1,3,M]PTH(1-15)NH2 tracer. Particulars: for IC50: COS-7 membranes cotransfected with negative-dominant Gαs; for reduction (alteration) of binding affinity for PTHR-delNt relative to parent peptide: versus the respective parent peptide. Here is the method:
PTHR-delNt is a derivative of the human PTHR that is deleted for most (Ala^24-Arg^181) of the amino-terminal extracellular domain (Shimizu, M., et al. (2001) Endocrinology 142:3068-3074). This PTHR construct was expressed in COS-7 cells via transient DNA transfection. For cAMP assays, the cells were transfected in 24-well plates using 0.2 μg of plasmid DNA and 0.6 μl of Fugene-6 reagent (Roche Diagnostics, Indianapolis Ind.) per well, and assays were performed on the intact cells three to four days after transfection. For binding assays, cell membranes were prepared from transfected COS-7 cells. To increase the maximal binding of ^125I-[Aib^1,3,M]PTH(1-15)NH2 to PTHR-delNt in these membranes, the cells were cotransfected with a negative dominant mutant Gαs protein (Gαs^ND). This mutant Gαs subunit is thought to couple to cognate receptors, and thus stabilize high affinity receptor conformations, more efficiently than does wild-type Gαs, without increasing basal cAMP levels (Berlot, C. H. (2002) J Biol Chem 277:21080-5). A precursor of this mutant Gαs, Gαs(α3β5), was recently used to increase binding of ^125I-[Aib^1,3,M]PTH(1-15)NH2 to PTHR-delNt in COS-7 cell membranes (Dean, T., (2006) Mol Endocrinol 20:931-942). Gαs^ND, which contains the same five amino acid replacement of corresponding Gαi residues in the α3β5 loop as Gαs(α3β5), plus the point mutations of Gly^226 to Ala, which increases affinity for Gβ/γ, and Ala^366 to Ser, which decreases affinity for GDP, yields approximately two-fold higher levels of specific binding of ^125I-[Aib^1,3,M]PTH(1-15)NH2 than does Gαs(α3β5) (data not shown). For the current membrane preparations, COS-7 cells were co-transfected in six-well plates using 1 μg of each plasmid DNA encoding PTHR-delNt and Gαs^ND, and 6 μl of Fugene-6 reagent (Roche Diagnostics, Indianapolis Ind.) per well. Cells were harvested three days after transfection, and membranes were prepared as described (Dean, T., et al. (2006) Mol Endocrinol 20:931-942).
Receptor binding—Binding to the wild-type human PTHR in intact HKRK-B7 cells and ROS 17/2.8 cells was assessed using ^125I-PTH(1-34) as a tracer radioligand, as described (Shimizu, M., (2001) Endocrinology 142:3068-3074). In brief, the cells in 24-well plates (about 500,000 cells per well) were incubated in binding buffer containing radioligand (about 100,000 cpm per well) with or without unlabeled peptide ligand (3×10^−9 to 1×10^−5 M) for four hours at 15° C. The binding mixture was then removed by aspiration, the cells were rinsed three times with binding buffer, lysed in 1 M NaOH, and the entire lysate was counted for gamma-irradiation in a gamma counter. Binding to PTHR-delNt in COS-7 cell membranes was assessed in 96-well, vacuum filtration plates (Multiscreen-Durapore HV, […] membranes, Millipore Corp., Millford, Mass.) using ^125I-[Aib^1,3,M]PTH(1-15)NH2 as a tracer radioligand, as described (Dean, T., (2006) Mol Endocrinol 20:931-942). In brief, cell membranes (20 μg/well) were incubated in membrane binding buffer containing radioligand (30,000 cpm/well) with or without unlabeled peptide ligand (3×10^−9 to 1×10^−5 M) for 90 minutes at 21° C. The plates were then subject to rapid vacuum filtration, the filters were washed once with buffer, detached from the plate and counted for gamma-irradiation in a gamma counter. Non-specific binding was defined as the binding observed in the presence of 1×10^−6 M PTH(1-31)NH2 for HKRK-B7 and ROS 17/2.8 cells, and 1×10^−6 M [Aib^1,3,M]PTH(1-15)NH2 for PTHR-delNt. Specifically bound radioactivity was calculated as a percentage of the radioactivity specifically bound in the absence of competing ligand. […]

Setting [2] is: [Ala1,Arg19]hPTH(1-31)NH2 analogs.
[3] abbreviates: [Ala1,Arg19]hPTH(1-31)NH2 analogs, read-out: PTHR-delNT (COS-7) IC50.
Where [4] appears, read: hPTH(1-31)NH2 analogs, read-out: PTHR-delNT (COS-7) IC50.

In general, IC50 refers to the concentration needed to halve the response being measured.

Values joined by “and” are separate entries in the source; they are usually repeats but may differ in a detail not shown here. Equal values may be shown once. Read-outs that look alike come from different tables or passages of the source. Where a SMILES comes first, the peptide text is derived from it. Where no end group is shown, it is not given here. [ ]: non-standard residue; d: D form. hArg = N=C(N)NCCCC[C@H](N)C(=O)O; Cha = N[C@@H](CC1CCCCC1)C(=O)O; Nle = CCCC[C@H](N)C(=O)O; Aib = CC(C)(N)C(=O)O

As for `CC[C@H](C)[C@H](NC(=O)[C@H](CCC(=O)O)NC(=O)[C@H](CO)NC(=O)[C@@H](NC(=O)[C@H](C)N)C(C)C)C(=O)N[C@@H](CCC(N)=O)C(=O)N[C@@H](CC(C)C)C(=O)N[C@@H](CCSC)C(=O)N[C@@H](Cc1c[nH]cn1)C(=O)N[C@@H](CC(N)=O)C(=O)N[C@@H](CC(C)C)C(=O)NCC(=O)N[C@@H](CCCCN)C(=O)N[C@@H](Cc1c[nH]cn1)C(=O)N[C@@H](CC(C)C)C(=O)N[C@@H](CC(N)=O)C(=O)N[C@@H](CO)C(=O)N[C@@H](CCSC)C(=O)N[C@@H](CCCNC(=N)N)C(=O)N[C@@H](CCCNC(=N)N)C(=O)N[C@H](C(=O)N[C@@H](CCC(=O)O)C(=O)N[C@@H](Cc1c[nH]c2ccccc12)C(=O)N[C@@H](CC(C)C)C(=O)N[C@@H](CCCNC(=N)N)C(=O)N[C@@H](CCCCN)C(=O)N[C@@H](CCCCN)C(=O)N[C@@H](CC(C)C)C(=O)N[C@@H](CCC(N)=O)C(=O)N[C@@H](CC(=O)O)C(=O)N[C@@H](CC1CCCCC1)C(N)=O)C(C)C` [Val^31→Cha] (H-AVSEIQLMHNLGKHLNSMRRVEWLRKKLQD[Cha]-NH2; N-terminus assumed), the CD helical residues in series [1] (setting [2]) is 9. The half-inhibitory concentration (IC50) on PTHR-delNt (setting [3]) came to 0.466 ± 0.298 µM.
Regarding `CC[C@H](C)[C@H](NC(=O)[C@H](CCC(=O)O)NC(=O)[C@H](CO)NC(=O)[C@@H](NC(=O)[C@H](C)N)C(C)C)C(=O)N[C@@H](CCC(N)=O)C(=O)N[C@@H](CC(C)C)C(=O)N[C@@H](CCSC)C(=O)N[C@@H](Cc1c[nH]cn1)C(=O)N[C@@H](CC(N)=O)C(=O)N[C@@H](CC(C)C)C(=O)NCC(=O)N[C@@H](CCCCN)C(=O)N[C@@H](Cc1c[nH]cn1)C(=O)N[C@@H](CC(C)C)C(=O)N[C@@H](CC(N)=O)C(=O)N[C@@H](CO)C(=O)N[C@@H](CCSC)C(=O)N[C@@H](CCCNC(=N)N)C(=O)N[C@@H](CCCNC(=N)N)C(=O)N[C@H](C(=O)N[C@@H](CCC(=O)O)C(=O)N[C@@H](Cc1c[nH]c2ccccc12)C(=O)N[C@@H](CC(C)C)C(=O)N[C@@H](CC1CCCCC1)C(=O)N[C@@H](CCCCN)C(=O)N[C@@H](CCCCN)C(=O)N[C@@H](CC(C)C)C(=O)N[C@@H](CCC(N)=O)C(=O)N[C@@H](CC(=O)O)C(=O)N[C@H](C(N)=O)C(C)C)C(C)C` [Arg^25→Cha] (H-AVSEIQLMHNLGKHLNSMRRVEWL[Cha]KKLQDV-NH2; N-terminus assumed), in series [1] (setting [2]), the CD helical residues is 9. In addition, the “reduction (alteration) of binding affinity for PTHR-delNt relative to parent peptide” value on PTHR-delNt (COS-7 membranes) is “approximately five- to seven-fold”. For the same molecule, the IC50 on PTHR-delNt (PTHR-delNT (COS-7) IC50, [Ala1,Arg19]hPTH(1-31)NH2 analogs) came to 2.71 ± 1.31 µM.
As for “SVSEIQLMHNLGKHLNAMERVEWLRKKLQDV-NH2 [Ser^17→Ala]”, the CD helical residues in series [1] (hPTH(1-31)NH2 analogs) was 10. Also, the IC50 at PTHR-delNt (setting [4]) came to 4.58 µM.
Take “SVSEIQLMHNLGKHLNSAERVEWLRKKLQDV-NH2 [Met^18→Ala]”: the CD helical residues in series [1] (hPTH(1-31)NH2 analogs) was 10. Moreover, the half-maximal inhibitory concentration (IC50) at PTHR-delNt (setting [4]) amounted to 8.8 µM.
In the case of “AVSEIQLMHNLGKHLNSMRRVEWLRKKEQDV-NH2 [Leu^28→Glu]”, the CD helical residues in series [1] (setting [2]) is 5. Also, on PTHR-delNt (COS-7 membranes), the “effect on binding to PTHR-delNt (in words)” value was “only mildly impaired binding to PTHR-delNt” and the “reduction (alteration) of binding affinity for PTHR-delNt relative to parent peptide” value is recorded as “less than three-fold”. Moreover, the half-inhibitory concentration (IC50) at PTHR-delNt (setting [3]) worked out at 0.974 ± 0.252 µM.
For the molecule `CCCC[C@H](NC(=O)[C@H](CC(C)C)NC(=O)[C@H](CCC(N)=O)NC(=O)[C@@H](NC(=O)[C@H](CCC(=O)O)NC(=O)C(C)(C)NC(=O)[C@@H](NC(=O)C(C)(C)N)C(C)C)[C@@H](C)CC)C(=O)N[C@@H](Cc1c[nH]cn1)C(=O)N[C@@H](CCC(N)=O)C(=O)N[C@@H](CCCCNC(=N)N)C(=O)N[C@@H](C)C(=O)N[C@@H](CCCCN)C(=O)N[C@@H](Cc1c[nH]c2ccccc12)C(=O)N[C@@H](Cc1ccc(O)cc1)C(N)=O` [[Aib^1,3,M]PTH(1-15), [Aib^1,3,Nle^8,Gln^10,homoarginine^11,Ala^12,Trp^14,Tyr^15]PTH(1-15)NH2, reference compound] (H-[Aib]V[Aib]EIQL[Nle]HQ[hArg]AKWY-NH2; N-terminus assumed), on PTHR-delNt (setting [4]), the 50% inhibitory concentration (IC50) is 0.0022 ± 0.0005 µM.
In the case of “AVSEIQLMHNLGKHLNSMRRVEWLRKKLQDV-NH2 [[Ala^1,Arg^19]PTH(1-31)NH2]”, on PTHR-delNt (setting [3]), the IC50 was 0.4 µM and 0.397 µM.

These data come from patent US8143374B2, “Polypeptide derivatives of parathyroid hormone (PTH)” (The General Hospital Corporation, priority 2006, dated 2012).
